Measured values: EP4631938A1, “NITROGEN-CONTAINING HETEROCYCLE WITH SEROTONIN RECEPTOR-BINDING ACTIVITY AND CARBOCYCLIC DERIVATIVE” (Shionogi & Co., Ltd, priority 2022, dated 2024)
pKi: −log10 of the molar value. Like-named read-outs stand apart in the source and are kept apart here.

Assays:
[1] = molecular target: T1, human recombinant 5-HT2A receptor (Homo sapiens, UniProt P28223); experiment: Test Example 1-2: 5-HT2A receptor binding inhibition test ([3H]-Ketanserin; non-specific ligand Ketanserin)
T1 construct: expressed in transfected cells; host or cells: Jump-In HEK cells (membrane preparation)
In short: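 Ki values were derived from dose-response inhibition of [3H]-ketanserin binding; nonspecific binding was set with 500 µmol/L ketanserin, and Kd was set for each membrane lot from Scatchard saturation plots. Incubation lasted 1.5 h at room temperature (25 °C). Bound radioligand was harvested on Tris-HCl (pH 7.4)-presoaked filters and counted.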

[2] = molecular target: T2, human recombinant 5-HT2C receptor (Homo sapiens, UniProt P28335); experiment: Test Example 2: 5-HT2C receptor binding inhibition test ([3H]-Mesulergine; non-specific ligand Serotonin HCl)
T2 construct: expressed in transfected cells; host or cells: Jump-In HEK cells (membrane preparation)
T2 sequence (P28335 33-458): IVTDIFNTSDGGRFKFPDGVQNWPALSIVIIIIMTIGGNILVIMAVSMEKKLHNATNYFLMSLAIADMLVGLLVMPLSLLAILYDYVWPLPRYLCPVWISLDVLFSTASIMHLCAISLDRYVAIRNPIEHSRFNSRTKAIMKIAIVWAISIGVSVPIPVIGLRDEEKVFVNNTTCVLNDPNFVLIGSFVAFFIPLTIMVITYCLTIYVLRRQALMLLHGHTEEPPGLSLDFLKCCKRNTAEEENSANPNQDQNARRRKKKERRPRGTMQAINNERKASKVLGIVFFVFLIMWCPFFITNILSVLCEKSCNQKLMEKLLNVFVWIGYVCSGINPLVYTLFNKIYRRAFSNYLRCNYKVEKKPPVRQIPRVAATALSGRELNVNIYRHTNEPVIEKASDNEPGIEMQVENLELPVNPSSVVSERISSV
In short: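 Ki values come from dose-response curves of [3H]-mesulergine displacement from human 5-HT2C membranes after 2 h at 37°C, scored by scintillation counting of filter-bound radioactivity. Serotonin HCl (500 µmol/L) set non-specific binding; Kd per membrane lot was taken from Scatchard plots.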

[3] = [3H]-Mesulergine, non-specific binding with 500 µmol/L Serotonin HCl, 37°C, 2 hours
[4] = [3H]-Ketanserin, non-specific binding with 500 µmol/L Ketanserin, room temperature (25°C), 1.5 hours, read-out: h 5-HT2A Ki
[5] = human serotonin 5-HT2C receptor binding activity

T1 sequence (P28223 whole entry): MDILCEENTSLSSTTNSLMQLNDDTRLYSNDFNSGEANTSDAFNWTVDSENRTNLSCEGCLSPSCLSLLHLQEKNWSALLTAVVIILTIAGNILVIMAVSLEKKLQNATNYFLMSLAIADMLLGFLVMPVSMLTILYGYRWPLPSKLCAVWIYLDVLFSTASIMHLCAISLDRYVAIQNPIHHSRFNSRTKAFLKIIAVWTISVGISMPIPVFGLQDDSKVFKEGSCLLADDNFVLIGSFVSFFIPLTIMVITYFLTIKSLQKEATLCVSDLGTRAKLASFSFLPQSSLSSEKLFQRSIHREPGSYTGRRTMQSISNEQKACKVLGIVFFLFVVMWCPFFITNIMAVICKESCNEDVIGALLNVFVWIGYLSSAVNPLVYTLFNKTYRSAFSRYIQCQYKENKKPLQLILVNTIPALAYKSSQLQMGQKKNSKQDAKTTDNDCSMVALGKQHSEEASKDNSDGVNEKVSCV

Row | Structure (SMILES) | pKi [1] | pKi [2, 3] | pKi [1, 4] | pKi [2, 5]
1 | Cn1ncc(Br)c1-c1cc(Nc2ncc(C(F)(F)F)cc2F)ccc1OCCO [Compound I-006] | 9.60 | 9.65 |  | 
2 | Cc1cnn(C)c1-c1cc(Nc2ncc(C(F)(F)F)cc2F)ccc1OCCO [Compound I-008] |  | 8.98 | 9.47 | 
3 | Cn1ncc(F)c1-c1cc(Nc2ncc(C(F)(F)F)cc2F)cnc1OCCO [Compound I-127] |  |  | 9.57 | 
4 | COCc1nc(C)c(-c2cc(Nc3ncc(OC(F)(F)F)cc3Cl)ncc2OCCO)c(C)n1 [Compound I-200] |  |  | 8.83 | 8.72
5 | COCc1nc(C)c(-c2nc(Nc3ccc(C(F)(F)F)c(C)n3)c(F)cc2OCCO)c(C)n1 [Compound I-247] |  |  | 8.76 | 8.79
6 | Cc1nc(COC2COC2)nc(C)c1-c1cc(Nc2ncc(C(F)(F)F)cc2Cl)ncc1OCCO [Compound I-376] |  |  | 8.65 | 8.56
7 | Cc1nc(CO[C@@H]2CCOC2)nc(C)c1-c1cc(Nc2ncc(C(F)(F)F)cc2Cl)ncc1OCCO [Compound I-378] |  |  | 8.61 | 8.82
